Common to all, as to type: functional, organism-based
One test has as its system Giardia intestinalis. The test is described as follows: Antiprotozoal activity against trophozoite stage of Giardia intestinalis IMSS:0981:1 assessed as growth inhibition after 48 hrs by haemocytometric analysis. As to conditions: Giardia duodenalis, IMSS:0981:1, 48 h.
The test system of the next test is Entamoeba histolytica. The test is described as follows: Antiprotozoal activity against trophozoite stage of Entamoeba histolytica HM-1:IMSS assessed as growth inhibition after 48 hrs by haemocytometric analysis.
The test system of the next test is Trichomonas vaginalis. In words: Antiprotozoal activity against trophozoite stage of Trichomonas vaginalis GT3 assessed as growth inhibition after 48 hrs by haemocytometric analysis. As to conditions: GT3, 48 h.

What is called IC50 is the midpoint of a concentration-inhibition curve.

As for `CCOc1cc2nc(SCCn3ccnc3)[nH]c2cc1Cl`, the IC50 with Giardia intestinalis was 46.5 nM; with Entamoeba histolytica it was 62 nM; with Trichomonas vaginalis, 99.1 nM.
For `COC(=O)c1cc2nc(SCCn3ccnc3)n(C)c2cc1Cl`, the IC50 with Giardia intestinalis turned out to be 44.2 nM; in the test with Entamoeba histolytica, 51.3 nM; in the test with Trichomonas vaginalis, 92.6 nM.
The like results for `Clc1ccc2[nH]c(SCCn3ccnc3)nc2c1` were, in that order, 80.7 nM, 73.5 nM and 170 nM.
On to `Clc1cc2nc(SCCn3ccnc3)[nH]c2cc1Cl`, for which the half-inhibitory concentration (IC50) in the test with Giardia intestinalis is 76.6 nM; in the test with Entamoeba histolytica, 59.1 nM; in the test with Trichomonas vaginalis, 140 nM.
The like results for `COC(=O)c1cc2c(cc1Cl)nc(SCCn1ccnc1)n2C` were, in that order, 55.6 nM, 42.8 nM and 86.9 nM.
As for `Cn1c(SCCn2ccnc2)nc2cc(Cl)c(Cl)cc21`, the half-maximal inhibitory concentration (IC50) in the test on Giardia intestinalis amounted to 68.8 nM; in the test on Entamoeba histolytica, 64.2 nM; in the test on Trichomonas vaginalis, 96.3 nM.
With `COC(=O)c1ccc2c(c1)nc(SCCn1ccnc1)n2C`, the values for the IC50 in the test on Giardia intestinalis, in the test on Entamoeba histolytica and in the test on Trichomonas vaginalis were 61.6 nM, 42.7 nM and 77.4 nM, respectively.
Consider `CCOc1cc2nc(SCCn3ccnc3)n(C)c2cc1Cl`, for which the concentration for half-maximal inhibition (IC50) came out at 20.8 nM in the test on Giardia intestinalis, 14.8 nM with Entamoeba histolytica and 98 nM in the test on Trichomonas vaginalis.
For `COC(=O)c1ccc2[nH]c(SCCn3ccnc3)nc2c1`, in that order: 77.7 nM, 61.2 nM and 111 nM.
For `c1ccc2[nH]c(SCCn3ccnc3)nc2c1`, in that order: 117 nM, 147 nM and 178 nM.
For `Cn1c(SCCn2ccnc2)nc2ccc(Cl)cc21`, in that order: 62.6 nM, 67.2 nM and 128 nM.
In the case of `Cn1c(SCCn2ccnc2)nc2cc(Cl)ccc21`, the results for the half-inhibitory concentration (IC50) in the test on Giardia intestinalis, in the test with Entamoeba histolytica and in the test on Trichomonas vaginalis were 66.6 nM, 66 nM and 135 nM, respectively.
In the case of `CCOc1ccc2[nH]c(SCCn3ccnc3)nc2c1`, the IC50 amounted to 56.6 nM in the test with Giardia intestinalis, 42.8 nM in the test on Entamoeba histolytica and 71.7 nM in the test on Trichomonas vaginalis.
For `CCOc1cc2c(cc1Cl)nc(SCCn1ccnc1)n2C`, in that order: 35.6 nM, 46 nM and 69.8 nM.
For `CCOc1ccc2nc(SCCn3ccnc3)n(C)c2c1`, the IC50 in the test with Giardia intestinalis stood at 45.2 nM; in the test on Entamoeba histolytica it was 40.8 nM; in the test on Trichomonas vaginalis, 71.7 nM.
The like results for `Cn1c(SCCn2ccnc2)nc2ccccc21` were, in that order, 87.1 nM, 77.4 nM and 149 nM.
The like results for `CCOc1ccc2c(c1)nc(SCCn1ccnc1)n2C` were, in that order, 8.3 nM, 29.8 nM and 76.1 nM.
For `COC(=O)c1ccc2nc(SCCn3ccnc3)n(C)c2c1`, in that order: 56.9 nM, 52.2 nM and 114 nM.
For the compound `Cc1ncc([N+](=O)[O-])n1CCO` [METRONIDAZOLE], in the test on Entamoeba histolytica, the half-maximal inhibitory concentration (IC50) was found to be 380 nM.
`COC(=O)c1cc2nc(SCCn3ccnc3)[nH]c2cc1Cl`: the 50% inhibitory concentration (IC50) in the test on Giardia intestinalis came out at 54.9 nM; in the test with Entamoeba histolytica, 57.9 nM; in the test on Trichomonas vaginalis, 72.7 nM.

(Values after ChEMBL document CHEMBL2401655, “Synthesis and antiprotozoal activity of novel 2-{[2-(1H-imidazol-1-yl)ethyl]sulfanyl}-1H-benzimidazole derivatives” (Bioorg Med Chem Lett, 2013).)
